Target: Carbonic anhydrase 2 (Homo sapiens, UniProt P00918)
Description: Inhibition of human carbonic anhydrase 2-catalyzed CO2 hydration by stopped flow technique

Q: How did the Ki turn out when `NS(=O)(=O)c1ccc(/N=C/c2ccc(O)cc2)cc1` was run?
A: 702 nM

Reference: ChEMBL document CHEMBL1154193, “Carbonic anhydrase II-induced selection of inhibitors from a dynamic combinatorial library of Schiff's bases” (Bioorg Med Chem Lett, 2009)
